Measurements taken from the supplement of paper PMC11208160.

Assay: recombinant UMI read abundance after kanamycin selection (control-corrected) (log10(CPM+1)); higher = more efficient recombination; extreme values may be limits of the assay; sequences stand for … in AGTGCAGAGAAAATCGGCCAGTTTTCTCTGCCTGCAGTCCGCATGCCGTGGGACCCCTTGGGTTCTAACCTGTTGCCTAGATTTATGCAGCGGACTGCCTTTCTCCCAAAGTGATAAACCGG…AGGTTGGTTTCACT; site = the 11-nt donor
Method in brief: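 For the IS621 bridge recombinase, a pooled Escherichia coli screen tested donor and donor-binding-loop pairs. Cells received the pair library together with a target plasmid encoding a fixed target and T7-inducible recombinase, then went onto IPTG (0.07 mM) plus kanamycin or unselected plates in duplicate. After PCR across the donor–target junction and sequencing, recombinant UMI counts were normalized to CPM, averaged, and scaled by control-derived factors. Each value is given as log10(CPM+1).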
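Also: IS621 bridge recombinase in Escherichia coli cells against a fixed T5 target plasmid.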

**Q.** For “TAGGCAACATGGACCGGTTTTCCCGGTAATCCGTATTTGCA (site TAGGCAACTTG)”, which “recombinant UMI read abundance (log10)” value is on record?
**A.** 0.0204

**Q.** For “AGCTCTACATGGACCGGTTTTCCCGGTAATCCGTATTTGAA (site AGCTCTACTTT)”, which “recombinant UMI read abundance (log10)” value is on record?
**A.** 0

**Q.** With “ACATACTCATGGACCGGTTTTCCCGGTAATCCGTATTTGCA (site CCATACTCTTG)” as the sequence, how does the “recombinant UMI read abundance (log10)” value read?
**A.** 2.69

**Q.** Which “recombinant UMI read abundance (log10)” value does the source give for “GTAGTCGCATGGACCGGTTTTCCCGGTAATCCGTATTTGCG (site GTAGGCGCTCG)” here?
**A.** 0.0201

**Q.** With “GTAGGCGCATGGACCGGTTTTCCCGGTAATCCGTATTTGCG (site GTAGTCGCTCG)” as the sequence, how does the “recombinant UMI read abundance (log10)” value read?
**A.** 0.407

**Q.** Which “recombinant UMI read abundance (log10)” value does the source give for “TGTACAGCATGGACCGGTTTTCCCGGTAATCCGTATTTGAC (site TGTACAACTGT)” here?
**A.** 0

**Q.** Which “recombinant UMI read abundance (log10)” value does the source give for “CCCATATCATGGACCGGTTTTCCCGGTAATCCGTATTTGTC (site CCCAGATCTGA)” here?
**A.** 0

**Q.** For “ACAGTATCATGGACCGGTTTTCCCGGTAATCCGTATTTGCA (site CCAGTATCTGG)”, which “recombinant UMI read abundance (log10)” value is on record?
**A.** 0.613

**Q.** With “GACAAAGCATGGACCGGTTTTCCCGGTAATCCGTATTTGGT (site GACAAAACTAC)” as the sequence, how does the “recombinant UMI read abundance (log10)” value read?
**A.** 0.00355

**Q.** For “ACAGTATCATGGACCGGTTTTCCCGGTAATCCGTATTTGCA (site ACAGTATCTCG)”, which “recombinant UMI read abundance (log10)” value is on record?
**A.** 1.77

**Q.** For “GCGGCTTCATGGACCGGTTTTCCCGGTAATCCGTATTTGTC (site GCGGCTTCTGA)”, which “recombinant UMI read abundance (log10)” value is on record?
**A.** 1.81

**Q.** For “ACACGTACATGGACCGGTTTTCCCGGTAATCCGTATTTGTC (site ACACGTACTGA)”, which “recombinant UMI read abundance (log10)” value is on record?
**A.** 1.49

**Q.** With “AGGTTCCCATGGACCGGTTTTCCCGGTAATCCGTATTTGTG (site AGGATCCCTCA)” as the sequence, how does the “recombinant UMI read abundance (log10)” value read?
**A.** 0.163

**Q.** With “CCCTACCCATGGACCGGTTTTCCCGGTAATCCGTATTTGCC (site CCCTAGCCTGG)” as the sequence, how does the “recombinant UMI read abundance (log10)” value read?
**A.** 0

**Q.** Which “recombinant UMI read abundance (log10)” value does the source give for “TTTGCCGCATGGACCGGTTTTCCCGGTAATCCGTATTTGCT (site TTTGCGGCTAG)” here?
**A.** 0.00684

**Q.** Which “recombinant UMI read abundance (log10)” value does the source give for “GACAAACCATGGACCGGTTTTCCCGGTAATCCGTATTTGGC (site GACAAACCTTC)” here?
**A.** 0

**Q.** Which “recombinant UMI read abundance (log10)” value does the source give for “CGGTATCCATGGACCGGTTTTCCCGGTAATCCGTATTTGAT (site CGGTATCCTAT)” here?
**A.** 0.734

**Q.** Which “recombinant UMI read abundance (log10)” value does the source give for “TGGGAGGCATGGACCGGTTTTCCCGGTAATCCGTATTTGAC (site TGGGAGGCTGT)” here?
**A.** 1.46

**Q.** For “GTGGGGGCATGGACCGGTTTTCCCGGTAATCCGTATTTGTG (site GTGGGGGCTCA)”, which “recombinant UMI read abundance (log10)” value is on record?
**A.** 0.984

**Q.** Which “recombinant UMI read abundance (log10)” value does the source give for “ACAGTATCATGGACCGGTTTTCCCGGTAATCCGTATTTGCA (site ATAGTATCTTG)” here?
**A.** 2.04

**Q.** For “AGGTGCCCATGGACCGGTTTTCCCGGTAATCCGTATTTGTG (site AGGTGCCCTCA)”, which “recombinant UMI read abundance (log10)” value is on record?
**A.** 0.0128

**Q.** Which “recombinant UMI read abundance (log10)” value does the source give for “CGGAAGTCATGGACCGGTTTTCCCGGTAATCCGTATTTGCC (site CGGCAGTCTGG)” here?
**A.** 0

**Q.** For “GCTGTCCCATGGACCGGTTTTCCCGGTAATCCGTATTTGGC (site GCTGTCCCTGC)”, which “recombinant UMI read abundance (log10)” value is on record?
**A.** 0

**Q.** With “GACTATCCATGGACCGGTTTTCCCGGTAATCCGTATTTGCT (site GAATATCCTAG)” as the sequence, how does the “recombinant UMI read abundance (log10)” value read?
**A.** 0.00525

**Q.** Which “recombinant UMI read abundance (log10)” value does the source give for “GATAAACCATGGACCGGTTTTCCCGGTAATCCGTATTTGGT (site GATAAACCTAC)” here?
**A.** 0

**Q.** Which “recombinant UMI read abundance (log10)” value does the source give for “CTATATCCATGGACCGGTTTTCCCGGTAATCCGTATTTGAG (site CTATATCCTCT)” here?
**A.** 1.41

**Q.** Which “recombinant UMI read abundance (log10)” value does the source give for “ACAGTATCATGGACCGGTTTTCCCGGTAATCCGTATTTGCA (site ATAGTATCTCG)” here?
**A.** 0.0911

**Q.** With “TTCTAGACATGGACCGGTTTTCCCGGTAATCCGTATTTGTT (site TTCTAGACTAA)” as the sequence, how does the “recombinant UMI read abundance (log10)” value read?
**A.** 0.0133

**Q.** Which “recombinant UMI read abundance (log10)” value does the source give for “TCAAATGCATGGACCGGTTTTCCCGGTAATCCGTATTTGCC (site TCAAATGCTGG)” here?
**A.** 0

**Q.** With “ACAGTATCATGGACCGGTTTTCCCGGTAATCCGTATTTGCA (site TTAGTATCTTG)” as the sequence, how does the “recombinant UMI read abundance (log10)” value read?
**A.** 2.66

**Q.** Which “recombinant UMI read abundance (log10)” value does the source give for “GGCAACCCATGGACCGGTTTTCCCGGTAATCCGTATTTGTT (site GGCGACCCTAA)” here?
**A.** 0.0135

**Q.** Which “recombinant UMI read abundance (log10)” value does the source give for “AAATACACATGGACCGGTTTTCCCGGTAATCCGTATTTGCT (site AAATACACTAG)” here?
**A.** 2.41

**Q.** Which “recombinant UMI read abundance (log10)” value does the source give for “GAGTTCACATGGACCGGTTTTCCCGGTAATCCGTATTTGAT (site GAGTTCACTAT)” here?
**A.** 1.69

**Q.** With “ATGCACGCATGGACCGGTTTTCCCGGTAATCCGTATTTGGG (site AAGCACGCTCC)” as the sequence, how does the “recombinant UMI read abundance (log10)” value read?
**A.** 0.017

**Q.** Which “recombinant UMI read abundance (log10)” value does the source give for “TACAAACCATGGACCGGTTTTCCCGGTAATCCGTATTTGGT (site CACAAACCTAC)” here?
**A.** 0.0034
